Source: patent US20100009352A1, “Method for Modeling a Disease” (priority 2006, published 2010)

Legend:
[1] = system: PC12-HttQ103 cells; assay: cellular systems biology model of Huntington's Disease, mutant huntingtin-GFP expression; format: cell-based, rat
Protocol: FIG. 10 are example cellular systems biology profiling images for a model of Huntington's Disease (HD). PC12-HttQ103 cells were seeded in 384-well plates +/− NGF (100 ng/ml). At two days post-seeding cells were induced with 200 nM RSL1 +/− NGF (100 ng/ml) for 48 h. Following fixation, cells were stained with Hoechst and with antibodies raised against tubulin and phospho c-Jun. Tubulin was detected with a donkey anti mouse Cy3 conjugated secondary antibody and phospho c-Jun was visualized with a donkey anti rabbit Cy5 conjugated secondary antibody. Images were captured with an HCS instrument and Hoechst-stained nuclei, mutant huntingtin-GFP expression, phospho c-Jun labeled nuclei, and tubulin-stained cells are shown. […]
FIG. 11 is a graph illustrating that mutant huntingtin aggregation correlates with cell loss. […] Images were captured with an HCS instrument and the cell number and % cells with aggregates were determined with standard imaging algorithms. […]
FIG. 14. are graphs illustrating little correlation between aggregate formation and differentiation PC12-Htt-Q103 cells were treated and stained as stated in FIG. 10. Aggregate formation in untreated and NGF-treated populations was measured with standard imaging algorithms. Mean neurite count and mean branch point distance form the cell body was also measured. […]

[2] = system: PC12T cells; assay: cellular systems biology profile of GFP-Htt aggregate formation with compound treatment; format: cell-based
Protocol: To test if there was an interrelationship between the modulation of the microtubule cytoskeleton and the formation of huntingtin protein (Htt) aggregates, cells were induced to produce fluorescently labeled huntingtin protein (GFP-Htt). Soon thereafter, the same Cells were treated with a set of compounds including several microtubule modulators. Cellular systems biology profiling can be used to define the interrelationships between several cellular features including microtubule cytoskeletal stability, cell cycle regulation, GFP-Htt aggregate formation, and nuclear morphology.
In one embodiment, 7.5×10^+6 PC12T cells were plated into T25 tissue culture flasks and panasterone A was added to a final concentration of 5 μM. After an overnight incubation, the cells were trypsinized and replated onto collagen I coated 384-well microplates at a density of 10000 cells per well in medium containing 1 μM panasterone A (24 h after the first panasterone A treatment began). Cells were treated for 26 h with 14 compounds at 12 concentrations each ranging from <1 nM to 50 μM. At the end of the incubation period, cells were fixed with 3.7% formaldehyde, permeabilized with 0.5% Triton X-100 detergent, and labeled with primary-secondary antibody pairs to measure microtubule stability (α-tubulin) and mitotic events (phospho-histone […]). Cells were also labeled with Hoechst 33342 (5 μg/ml) to provide measurements of cell cycle regulation (DNA content), changes in cell number, and multiple nuclear morphology measurements including chromatin condensation and nuclear size and shape.
To build a cellular systems biology profile of the cellular response to GFP-Htt aggregation and compound treatment, the following example cellular systems biology response profile features can be calculated from responses of cell populations either expressing GFP-Htt or not expressing GFP-Htt that can be separated mathematically from each other and analyzed separately.

Structure (SMILES) | cell number ([1]; 200 nM RSL1, as a function of treatment time) | % cells with aggregates ([1]; 200 nM RSL1 induction) | compound induced modulation of cell cycle regulation (2 n/4 n distribution ratio) ([2]; cells with GFP-Htt aggregates versus cells without aggregates, 26 h treatment) | sensitivity to the microtubule destabilizing activity ([2]; cells with aggregates versus cells without aggregates) | Nocodazole-induced cell cycle regulation and nuclear morphological changes ([2]; in cells containing GFP-Htt aggregates)
CCc1c(OC)cccc1C(=O)NN(C(=O)c1cc(C)cc(C)c1)C(C)(C)C [RSL1] | decreased | 50% |  |  | 
COC(=O)Nc1nc2ccc(C(=O)c3cccs3)cc2[nH]1 [nocodazole] |  |  | less responsive | greater sensitivity | partially inhibited
